“Also recorded” adds a separate entry of the source.
Assays:
[1] = tested on: CO2-sensitive ab1C neurons; test: single-sensillum electrophysiology, inhibition of CO2 response of ab1C neurons; assay type: cell-based, Drosophila; settings: odourant 10^-2; 3-sec 0.3% CO2 with 1-sec odourant
Text: Representative traces (top) and mean responses (bottom) from single-sensillum electrophysiology of ab1 sensilla in mutant flies; spikes represent activity of the ab1C neuron. a, 3-sec stimulus of odourant overlaid with a 1-sec application of 0.3% CO2. b, 3-sec stimulus of 0.3% CO2 overlaid with a 1-sec application of odourant. PO=paraffin oil, d4on=2,3-butanedione, 6ol=1-hexanol. n=6, error bars=s.e.m. Spikes per second were counted during the 1-sec stimulus period, and spontaneous activity subtracted. (For data in a and b, T-test, *P<0.001, **P<0.005, ***P<0.01, ****P<0.05) c, ab1C responses to indicated concentrations of CO2 in the presence of solvent (PO), 1-hexanol (6ol) or 2,3-butanedione (d4on). Odourants were tested at 10^−1 dilution. Firing rates were counted in consecutive 0.1-sec bins. n=3, error bars=s.e.m.
Bars indicate stimulus periods for 0.3% CO2, and overlays with 1-hexanol (6ol) or 2,3-butanedione (d4on) at the indicated concentrations. b, Recovery of ab1C responsiveness to a 0.5-sec, 0.3% CO2 stimulus applied every 30-sec after initial treatment with 3-sec stimulus of either d4on (10^−1) or paraffin oil (PO). n=5, error bars=s.e.m., (T-test, *P<0.005, **<0.01, ***P<0.05). c, CO2 response inhibition by structurally related compounds. A 3-sec stimulus of 0.3% CO2 was delivered in combination with 1-sec application of indicated odourant (10^−2) as in a. Percent increase or decrease in mean ab1C response was calculated relative to mean response of paraffin oil. n=5. d, Structures of CO2 and the 4 strongest antagonists. e-f, show mean odourant responses. e, Odourants were tested on ab1C neurons in Or83b2 flies at 10^−2 dilution in paraffin oil. Bars represent values after subtraction of mean response to paraffin oil. n=3. f, Odourants at indicated concentrations were tested on ab3A neuron in wild-type (wt) and ΔHalo (AH) mutants that lack Or22a and Or22b. Bars represent values after subtraction of spontaneous activity. n=5, error bars=s.e.m.
FIG. 16 is a schematic diagram of an odour-delivery system to maintain steady concentration of CO2 in binary mixture experiments. Cartridges were made from Pasteur pipettes with pre-filled cotton wool inserts. […] odorant dissolved in paraffin oil (at specific concentrations) was applied to the cotton wool, and a 1.5 ml disposable tip attached to the open end to make the “odour cartridge”. A controlled “humidified air flow” was generated from a compressed air cylinder by bubbling through water, and passed through a glass tube, and released over the recording arena holding the Drosophila. A C-55 stimulus controller (Syntech) was used to generate an additional activated-charcoal filtered continuous air flow of 5 ml/sec which was delivered into the humidified airstream through a “blank cartridge” with the tip placed through a hole in the tube. To generate controlled odourant stimulus the C-55 stimulus controller was used to switch air flow from the “continuous air flow” to “odor stimulus flow” channel. An additional CO2 stimulus was pulsed through a separate system that delivered controlled pulses (variable 2.5 ml/sec-6.5 ml/sec) into the same humidified airstream, from either a 1%, 5% or 100% cylinder of CO2 (Airgas).
Extracellular single-unit recordings were performed. Odourant stimuli were delivered via Pasteur pipette odour cartridges (see, FIG. 16). Chemicals were of the highest purity available, typically>99% (Sigma-Aldrich). All odourants were diluted in paraffin oil. A controlled volume of air 5 ml/sec was puffed through the odour cartridge containing vapours, and was delivered into a constant humidified airstream of 10 ml/sec that was passed over the fly antenna. […] CO2 stimulus was pulsed through a separate delivery system that delivered controlled pulses (variable 2.5 ml/sec-6.5 ml/sec) into the same humidified airstream, from either a 1%, 5% or 100% tank of CO2 (Airgas). […]

[2] = tested on: CO2 sensitive neuron (A neuron) of peg sensillum; test: single-sensillum electrophysiology of maxillary palp peg sensillum, inhibition of CO2 response; assay type: cell-based, Culex quinquefasciatus; settings: 3-sec pre-exposure, 10^-1; 0.25% CO2 impulse every 30-sec over 6-min
Procedure: (§1) FIG. 2 depicts electrophysiology measurements of the peg sensillum on the mosquito maxillary palp. The palp, indicated in brown in the schematic of the mosquito head, has several peg sensilla. Each peg sensilla (grey club-like structure in the center) contains three olfactory neurons A, B and C as indicated, of which the ‘A’ neuron gives a robust and specific increase in frequency of action potentials in response to a stimulus of CO2. Extracellular single-unit recordings are performed by inserting a glass microelectrode into the peg sensilla, and puffing an odor such as CO2 towards the mosquito maxillary palps. The signal is amplified to obtain the trace of action potentials.
(§2) Action potential traces from the peg sensillum of the maxillary palp show spike amplitudes from three neurons, where the highest spike (from neuron A) indicates the CO2 response. A 3-sec stimulus of 0.3% CO2 (indicated by longer black bar), is overlaid with a 0.5-sec stimulus of candidate odors. […]
The recovery of the response to a 0.25% impulse (top) or 0.3% impulse (bottom) of CO2 was measured every 30-sec over a 6-min time period, after an initial 3-sec pre-exposure with (A) butanal (10^−1) (top), or (B) an ‘odor mixture’ consisting of 1-hexanol, pentanal, butanal, and 2,3-butanedione at 10^−2 concentration (bottom). […]

[3] = tested on: CO2 sensitive neuron (A neuron) of peg sensillum; test: as above; assay type: cell-based, Aedes aegypti; settings: 3-sec pre-exposure, 10^-1; 0.3% CO2 impulse every 30-sec over 6-min
Procedure: as §1
as §2, with “bar),” for “bar), is”, “1-sec” for “0.5-sec”, “odor. CO2 and odor stimuli are applied in the same manner as discussed above.” for “candidate odors.”
The recovery of the response to a 0.3% impulse of CO2 was measured every 30-sec over a 6-min time period, after an initial 3-sec pre-exposure with (A) butanal (10^−1), or (B) an ‘odor mixture’ consisting of 1-hexanol, pentanal, butanal, and 2,3-butanedione at 10^−2 concentration. […]

[4] = tested on: CO2 sensitive A neuron of peg sensillum; test: activation of CO2 sensitive neuron with a volatile odorant; assay type: cell-based, Culex quinquefasciatus; settings: indicated concentrations
Procedure: as §1
(a) Action potential traces from the peg sensillum of the maxillary palp show spike amplitudes from three neurons, where the spikes with the largest amplitude belongs to the CO2 sensitive A neuron. (b) 1 sec of the indicated dilution 2,3-butanedione is puffed to Aedes aegypti. (c) 1 sec of indicated odor is puffed to Anopheles gambiae. (d) butanone and (e) 2,3-butanedione are given to Culex quinquefasciatus at the indicated concentrations. PO=paraffin oil. n=5. Baseline activity subtracted. Error bars indicate SEM.

SMILES | CO2 response inhibition by structurally related odourants [1] | CO2 response after pre-exposure [2] | CO2 response after pre-exposure [3] | activation of CO2 sensitive neuron [4]
CCCCC=O [pentanal] | effective inhibitors |  |  | 
CCCC=O [butanal] | effective inhibitors | long term reduction in CO2 response | long term reduction in CO2 response | 
CCC(C)=O [butanone] |  |  |  | activation; also recorded: activator

Source: patent US8945595B2, “Insect repellent and attractants” (The Regents of the University of California, priority 2009, dated 2015)
